# Measured values reported in EP0518675A2, “Cyclic renin inhibitors” (MERCK & CO. INC., priority 1991, dated 1992).
# Square brackets hold non-standard residues; d marks the D form. Peptide text beside a SMILES is read from it. * marks the point of attachment. Sta = CC(C)C[C@H](N)[C@@H](O)CC(=O)O; Isovaleryl = CC(C)CC(=O)*
# Experiments:
# [1] = tested on: conscious sodium-deficient Rhesus monkeys; assay: intravenous evaluation of renin inhibitors in conscious sodium-deficient Rhesus monkeys (blood pressure lowering); assay type: in vivo; conditions: i.v. bolus injection, mean arterial pressure
# Excerpt: The following methods were used for in vivo evaluation of the renin inhibitors of Formua I: Intravenous evaluation of renin inhibitors in conscious sodium-deficient Rhesus monkeys: Rhesus monkeys, male and female, weighing 2.6 - 4.5 Kg, were surgically prepared with chronic arterial and venous catheters and vascular access ports for direct monitoring of mean arterial pressure (MAPI) and heart rate (HR). The animals were maintained on a low sodium diet (1.2 mmol Na/day) plus fruit for a week, and administered LASIX (furosemide) at2.5 mg/Kg, intramuscularly the evening prior to the experiment. The animals had been trained to sit quietly in the chairs with water AD LIBIUM for the duration of the experiment. The inhibitors were administered by bolus injection using 0.5% acetic acid-5% dextrose in water as the vehicle (0.4 ml/Kg), and MAP and HRwere measured. Blood samples were withdrawn at different time intervals beginning at the nadir of hypotensive response. PRA was determined as described above. […] A projected ED50 dose for each inhibitor was calculated using the following formula: ED50 (Test Inhibitor, umoles/Kg) = ED50 (SCRIP) X [IC50 (Test Inhibitor)/IC50 (SCRIP)], where the IC50 values were determined against human plasma renin. […] Percent inhibition of monkey PRA, changes in MAP and HR were calculated and plotted against time. […]
# [2] = tested on: human plasma renin; assay: human plasma renin IC50 determination at pH 7.4; assay type: biochemical; conditions: against human plasma renin
# Experimental: The following method was used for in vitro evaluation of the renin inhibitors of Formula I: The human plasma renin IC50 values for inhibitors of Formula I were determined at pH 7.4 following the procedure described in J. Boger, L.S. Payne, D.S. Perlow, N.S. Lohr, M. Poe, E.H. Blaine, E. H. Elm, T.W. Schorn, B.I. Lamont, T.-Y. Lin, M. Kawai, D.H. Rich and D.F. Veber, J. Med. Chem., 28, 1779 (1985).
smiles,measurement,setting,value
"CC(C)CC(=O)N[C@@H](Cc1c[nH]cn1)C(=O)N1CCC[C@H]1C(=O)N[C@@H](Cc1ccccc1)C(=O)N[C@@H](Cc1c[nH]cn1)C(=O)N[C@@H](CC(C)C)[C@@H](O)CC(=O)N[C@@H](CC(C)C)C(=O)N[C@@H](Cc1ccccc1)C(N)=O [SCRIP, Iva-His-Pro-Phe-His-Sta-Leu-Phe-NH2] (Isovaleryl-HPFH[Sta]LF-NH2)",i.v. dose of the standard inhibitor required to lower blood pressure by 50% of the maximal response (ED50),[1],0.039 µmol/kg
same,IC50,[2],3.7 nM
